pIC50: −log10 of the molar value.
Target: T1, APOL1 (Homo sapiens, UniProt O14791)
T1 sequence (O14791 1-398): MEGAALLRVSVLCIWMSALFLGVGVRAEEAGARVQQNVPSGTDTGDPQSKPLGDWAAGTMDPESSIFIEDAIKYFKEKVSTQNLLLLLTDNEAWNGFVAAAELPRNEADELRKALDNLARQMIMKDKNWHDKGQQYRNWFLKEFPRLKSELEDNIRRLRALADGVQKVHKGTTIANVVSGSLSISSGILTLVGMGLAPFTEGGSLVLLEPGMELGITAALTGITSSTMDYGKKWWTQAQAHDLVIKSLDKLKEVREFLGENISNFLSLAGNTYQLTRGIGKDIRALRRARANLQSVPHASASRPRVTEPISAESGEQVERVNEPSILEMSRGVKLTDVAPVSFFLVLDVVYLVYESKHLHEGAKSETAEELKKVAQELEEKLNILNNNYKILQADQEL
Test: MultiTox-Fluor Multiplex Cytotoxicity Assay, tet-inducible APOL1 T-REx-HEK293 cells (G0, G1 or G2 clone not specified for Table 20)
Format: cell-based
Conditions: tet-induced, 24 hours with compound, ratio of dead to live cells, read-out: IP50 (i.e., IC50 for cell proliferation)
Method: Human embryonic kidney (HEK293) cell lines containing a tet-inducible expression system (T-REx™; Invitrogen, Carlsbad, CA) and Adeno-associated virus site 1 pAAVS1-Puro-APOL1 G0 or pAAVS1-Puro-APOL1 G1 or pAAVS1-Puro-APOL1 G2 Clones G0 DC2.13, G1 DC3.25, and G2 DC4.44 were grown in a T-225 flask at ˜90% confluency in cell growth media (DMEM, 10% Tet-free FBS, 2 mM L-glutamine, 100 Units/mL penicillin-streptomycin, 5 μg/mL blasticidin S HCl, 1 μg/mL puromycin dihydrochloride). Cells were washed with DPBS and then trypsinized to dissociate from the flask. Media was used to quench the trypsin, cells were then pelleted at 200 g and resuspended in fresh cell assay media (DMEM, 2% Tet-free FBS, 2 mM L-glutamine, 100 Units/mL penicillin-streptomycin). Cells were counted and diluted to 1.17×10^6 cells/mL. 20 μL of cells (23,400/well) were dispensed in every well of a 384-well Poly-D-Lysine coated plate using the Multidrop dispenser. The plates were then incubated at room temperature for one hour.
Tetracycline is needed to induce APOL1 expression. 1 mg/mL tet stock in water was diluted to 250 ng/mL (5×) in cell assay media. 60 μL of cell assay media (no tet control) was dispensed in columns 1 and 24, and 60 μL of 5× tet in 384-PP-round bottom plate was dispensed in columns 2 to 23 with the Multidrop dispenser.
Assay ready plates from the Global Compound Archive were ordered using template 384_APOL1Cell_DR10n2_50 uM_v3. Compounds were dispensed at 200 nL in DMSO. The final top concentration was 10 μM with a 10 point 3-fold dilution in duplicate in the MultiTox assay.
20 μL was transferred from the 5× tet plate to the ARP and mixed, then 5 μL of 5× tet and the compounds were transferred to the cell plate and mixed using the Bravo. The cell plate was placed in the humidified 37° C. 5% CO2 incubator for 24 hours.
The MultiTox-Fluor Multiplex Cytotoxicity Assay was performed in accordance with the manufacturer's protocol. After cells were incubated with tet and compound for 24 hours, 25 μL of 1× MultiTox reagent was added to each well using the Multidrop dispenser; the plates were placed on a plate shaker (600 rpm) for 2 minutes, then centrifuged briefly and placed back in the 37° C. incubator for 30 minutes. The cell viability (excitation: 400 nm, emission: 486 nm) and cytotoxicity (excitation: 485 nm, emission: 535 nm) were read using the EnVision plate reader. A ratio of dead (cytotoxicity) to live (viability) cells was reported. Data was exported and analyzed in Genedata. Data was normalized using percent of control, no tet (100% viability), and 50 ng/mL tet treated (0% viability), and fit using Smart Fit settings in Genedata.

C[C@H]1C[C@@]2(CCN1Cc1cnn(C)c1)OCCc1ccc(Cl)cc12 [Compound 111] and CCn1cc(CN2CC[C@]3(C[C@@H]2C)OCCc2ccc(Cl)cc23)cn1 [Compound 121] cannot be ordered by pIC50: at least 7.30 for the first, at least 7.30 for the second.

Cc1ncc(CN2CC[C@]3(C[C@@H]2C)OCCc2ccc(Cl)cc23)cn1 [Compound 112] and C[C@H]1C[C@@]2(CCN1Cc1cnc(N)nc1)OCCc1ccc(Cl)cc12 [Compound 123] cannot be ordered by pIC50: at least 7.30 for the first, at least 7.30 for the second.

C[C@H]1C[C@@]2(CCN1Cc1cnn3c1CCC3)OCCc1ccc(Cl)cc12 [Compound 113] and C[C@H]1C[C@@]2(CCN1Cc1cnn(C(C)(C)C)c1)OCCc1ccc(Cl)cc12 [Compound 120] cannot be ordered by pIC50: at most 6.30 for the first, 6.30 to 7.30 for the second.

C[C@H]1C[C@@]2(CCN1Cc1cccnc1)OCCc1ccc(Cl)cc12 [Compound 114] and C[C@H]1C[C@@]2(CCN1Cc1ccncc1)OCCc1ccc(Cl)cc12 [Compound 118] cannot be ordered by pIC50: at least 7.30 for the first, at least 7.30 for the second.

C[C@H]1C[C@@]2(CCN1Cc1cnn(CC(C)(CO)CO)c1)OCCc1ccc(Cl)cc12 [Compound 115] and C[C@H]1C[C@@]2(CCN1Cc1cnn(C[C@@H](O)C(C)(C)O)c1)OCCc1ccc(Cl)cc12 [Compound 124] cannot be ordered by pIC50: at least 7.30 for the first, at least 7.30 for the second.

C[C@H]1C[C@@]2(CCN1Cc1cnn(C3CCS(=O)(=O)C3)c1)OCCc1ccc(Cl)cc12 (some centres unmarked) [Compound 116] and C[C@H]1C[C@@]2(CCN1Cc1cnn(C(F)F)c1)OCCc1ccc(Cl)cc12 [Compound 122] cannot be ordered by pIC50: at least 7.30 for the first, at least 7.30 for the second.

Compared with C[C@H]1C[C@@]2(CCN1Cc1cnn(-c3ccccn3)c1)OCCc1ccc(Cl)cc12 [Compound 117], C[C@H]1C[C@@]2(CCN1Cc1ccccn1)OCCc1ccc(Cl)cc12 [Compound 138] is lower in pIC50: at least 7.30 for the first, at most 6.30 for the second. The first is the more potent here.

C[C@H]1C[C@@]2(CCN1Cc1cncnc1)OCCc1ccc(Cl)cc12 [Compound 119] and CCn1cc(CN2CC[C@]3(C[C@@H]2C)OCCc2ccc(Cl)cc23)nn1 [Compound 154] cannot be ordered by pIC50: at least 7.30 for the first, 6.30 to 7.30 for the second.

C[C@H]1C[C@@]2(CCN1Cc1cnn(C[C@H](O)C(C)(C)O)c1)OCCc1ccc(Cl)cc12 [Compound 125] and C[C@H]1C[C@@]2(CCN1Cc1cn(CC(O)C(C)(C)O)nn1)OCCc1ccc(Cl)cc12 (some centres unmarked) [Compound 143] cannot be ordered by pIC50: at least 7.30 for the first, at least 7.30 for the second.

CNS(=O)(=O)CCn1cc(CN2CC[C@]3(C[C@@H]2C)OCCc2ccc(Cl)cc23)cn1 [Compound 126] and C[C@H]1C[C@@]2(CCN1Cc1cnn(CCS(C)(=O)=O)c1)OCC(F)(F)c1ccc(Cl)cc12 [Compound 135] cannot be ordered by pIC50: at least 7.30 for the first, at least 7.30 for the second.

Cn1cc(CN2CCC3(CC2)OCCc2ccccc23)cn1 [Compound 127] and Cn1cc(CN2CCC3(CC2)OCCc2ccc(C(F)(F)F)cc23)cn1 [Compound 128] cannot be ordered by pIC50: at most 6.30 for the first, at most 6.30 for the second.

Compared with CS(=O)(=O)CCn1cc(CN2CCC3(CC2)OCCc2ccc(Cl)cc23)nn1 [Compound 129], C[C@H]1C[C@@]2(CCN1Cc1cn(CCO)nn1)OCCc1ccc(Cl)cc12 [Compound 141, 2-[4-[[(1R,2′S)-7-chloro-2′-methyl-spiro[isochromane-1,4′-piperidine]-1′-yl]methyl]triazol-1-yl]ethanol] is higher in pIC50: at most 6.30 for the first, at least 7.30 for the second. The second is the more potent here.

CS(=O)(=O)CCn1cc(CN2CCC3(CC2)OCC(O)c2ccc(Cl)cc23)cn1 (centres unmarked) [Compound 130] and C[C@H]1C[C@@]2(CCN1Cc1cnn(CCS(C)(=O)=O)c1)OC[C@H](O)c1ccc(Cl)cc12 [Compound 132] cannot be ordered by pIC50: 6.30 to 7.30 for the first, at least 7.30 for the second.

C[C@H]1C[C@@]2(CCN1Cc1cnn(C)c1)OCC(O)c1ccc(Cl)cc12 (some centres unmarked) [Compound 131] and C[C@H]1C[C@@]2(CCN1Cc1cnn(CCS(C)(=O)=O)c1)OC[C@@H](O)c1ccc(Cl)cc12 [Compound 133] cannot be ordered by pIC50: at least 7.30 for the first, at least 7.30 for the second.

First: C[C@H]1C[C@@]2(CCN1Cc1cnn(C)c1)OCC(O)c1ccc(Cl)cc12 (some centres unmarked) [Compound 134]
Second: CC1CN(Cc2cnn(C)c2)CCC12OCCc1ccc(Cl)cc12 (centres unmarked) [Compound 140, 7-chloro-3′-methyl-1′-[(1-methylpyrazol-4-yl)methyl]spiro[isochromane-1,4′-piperidine]]
The pIC50 of the first is higher: at least 7.30 for the first, at most 6.30 for the second. The first is the more potent here.

Cc1ccc2c(c1)C1(CCN(Cc3ccccc3)C(C)C1)OCC2 (centres unmarked) [Compound 136] and COCn1cc(CN2CC[C@]3(C[C@@H]2C)OCCc2ccc(Cl)cc23)nn1 [Compound 155] fall in the same range of pIC50: 6.30 to 7.30 for the first, 6.30 to 7.30 for the second.

First: Cc1ccc2c(c1)C1(CCN(Cc3ccccc3)C(C)C1)OCC2 (centres unmarked) [Compound 137]
Second: CC(O)Cn1cc(CN2CC[C@]3(C[C@@H]2C)OCCc2ccc(Cl)cc23)nn1 (some centres unmarked) [Compound 144]
The pIC50 of the first is lower: at most 6.30 for the first, at least 7.30 for the second. The second is the more potent here.

C[C@H]1C[C@@]2(CCN1Cc1cn(Cc3ccnc(CO)c3)nn1)OCCc1ccc(Cl)cc12 [Compound 142, (4-((4-(((1R,2′S)-7-chloro-2′-methylspiro[isochromane-1,4′-piperidin]-1′-yl)methyl)-1H-1,2,3-triazol-1-yl)methyl)pyridin-2-yl)methanol] and C[C@H]1C[C@@]2(CCN1Cc1cn(Cc3nc(CO)cs3)nn1)OCCc1ccc(Cl)cc12 [Compound 164] fall in the same range of pIC50: 6.30 to 7.30 for the first, 6.30 to 7.30 for the second.

C[C@H]1C[C@@]2(CCN1Cc1cn(CC3CC(=O)N(C)C3)nn1)OCCc1ccc(Cl)cc12 (some centres unmarked) [Compound 145] and C[C@H]1C[C@@]2(CCN1Cc1cn(C3CC(=O)N(C)C3)nn1)OCCc1ccc(Cl)cc12 (some centres unmarked) [Compound 146] cannot be ordered by pIC50: 6.30 to 7.30 for the first, at least 7.30 for the second.

C[C@H]1C[C@@]2(CCN1Cc1cn(CCCO)nn1)OCCc1ccc(Cl)cc12 [Compound 147] and C[C@H]1C[C@@]2(CCN1Cc1cn(CC(O)CO)nn1)OCCc1ccc(Cl)cc12 (some centres unmarked) [Compound 152] cannot be ordered by pIC50: at least 7.30 for the first, at least 7.30 for the second.

C[C@H]1C[C@@]2(CCN1Cc1cn(CC3(CO)CC3)nn1)OCCc1ccc(Cl)cc12 [Compound 148] and C[C@H]1C[C@@]2(CCN1Cc1cn(CC3(O)CCOC3)nn1)OCCc1ccc(Cl)cc12 (some centres unmarked) [Compound 149] cannot be ordered by pIC50: at least 7.30 for the first, at least 7.30 for the second.

C[C@H]1C[C@@]2(CCN1Cc1cn(C3CN(S(C)(=O)=O)C3)nn1)OCCc1ccc(Cl)cc12 [Compound 150] and C[C@H]1C[C@@]2(CCN1Cc1cn(CC(C)(C)NS(C)(=O)=O)nn1)OCCc1ccc(Cl)cc12 [Compound 167] cannot be ordered by pIC50: at least 7.30 for the first, at least 7.30 for the second.

C[C@H]1C[C@@]2(CCN1Cc1cn(C(CO)CO)nn1)OCCc1ccc(Cl)cc12 [Compound 151] and C[C@H]1C[C@@]2(CCN1Cc1cn(C(C)(CO)CO)nn1)OCCc1ccc(Cl)cc12 [Compound 153] cannot be ordered by pIC50: at most 6.30 for the first, at most 6.30 for the second.

C[C@H]1C[C@@]2(CCN1Cc1cn(CC(O)C(C)(C)O)nn1)OCCc1ccc(Cl)cc12 (some centres unmarked) [Compound 156] and C[C@H]1C[C@@]2(CCN1Cc1cn(CC(C)(C)CS(N)(=O)=O)nn1)OCCc1ccc(Cl)cc12 [Compound 158] cannot be ordered by pIC50: at least 7.30 for the first, at least 7.30 for the second.

C[C@H]1C[C@@]2(CCN1Cc1cn(CC(O)C(C)(C)O)nn1)OCCc1ccc(Cl)cc12 (some centres unmarked) [Compound 157] and CCc1nnc(Cn2cc(CN3CC[C@]4(C[C@@H]3C)OCCc3ccc(Cl)cc34)nn2)o1 [Compound 161] cannot be ordered by pIC50: at least 7.30 for the first, at least 7.30 for the second.

Cc1ccc(NCCn2cc(CN3CC[C@]4(C[C@@H]3C)OCCc3ccc(Cl)cc34)nn2)nn1 [Compound 159] and CNc1cnc(Cn2cc(CN3CC[C@]4(C[C@@H]3C)OCCc3ccc(Cl)cc34)nn2)cn1 [Compound 162] fall in the same range of pIC50: 6.30 to 7.30 for the first, 6.30 to 7.30 for the second.

C[C@H]1C[C@@]2(CCN1Cc1cn(CCCc3nc(=O)[nH][nH]3)nn1)OCCc1ccc(Cl)cc12 [Compound 160] and C[C@H]1C[C@@]2(CCN1Cc1cn(Cc3cc(=O)[nH]c(C4CC4)n3)nn1)OCCc1ccc(Cl)cc12 [Compound 163] fall in the same range of pIC50: 6.30 to 7.30 for the first, 6.30 to 7.30 for the second.

Cc1nc(Cn2cc(CN3CC[C@]4(C[C@@H]3C)OCCc3ccc(Cl)cc34)nn2)sc1C(N)=O [Compound 165] and C[C@H]1C[C@@]2(CCN1Cc1cn(Cc3cnn4c3C(=O)N(C)CC4)nn1)OCCc1ccc(Cl)cc12 [Compound 166] cannot be ordered by pIC50: at least 7.30 for the first, 6.30 to 7.30 for the second.

— patent publication US20250195483A1, “SPIRO PIPERIDINE DERIVATIVES AS INHIBITORS OF APOL1 AND METHODS OF USING SAME” (Vertex Pharmaceuticals Incorporated, priority 2022, published 2025)
